In the supplement of paper PMC10307832:

Assays:
Assay in all cases: relative viability (nuclei count vs DMSO), 5 days (fraction); higher = more cells survive
[1] = compound: CC1=CN=C(N=C1C2=CNC(=C2)C(=O)N[C@H](CO)C3=CC(=CC=C3)Cl)NC4=C(C=C(C=C4)F)Cl [VX-11e] + C[C@@H](Oc1cc(-c2cnn(C3CCNCC3)c2)cnc1N)c1c(Cl)ccc(F)c1Cl [Crizotinib] (partner 1 µM)
Procedure, shortened: (§1)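 Lung cancer cell lines, seeded in 1536-well plates, were treated the following day by pin tool with a single drug or with five library-drug doses (not always all listed) in √10 steps on top of a fixed anchor-drug dose. Cells were fixed and nuclei stained in one step after 5 days, and nuclei were counted. Relative viability is the nuclei count for treated wells divided by that for vehicle wells, reported as medians of duplicate plates.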

[2] = compound: CC1=CN=C(N=C1C2=CNC(=C2)C(=O)N[C@H](CO)C3=CC(=CC=C3)Cl)NC4=C(C=C(C=C4)F)Cl [VX-11e] + CS(=O)(=O)CCNCc1ccc(-c2ccc3ncnc(Nc4ccc(OCc5cccc(F)c5)c(Cl)c4)c3c2)o1 [Lapatinib] (partner 2 µM)
Procedure, shortened: as §1

[3] = compound: CC1=CN=C(N=C1C2=CNC(=C2)C(=O)N[C@H](CO)C3=CC(=CC=C3)Cl)NC4=C(C=C(C=C4)F)Cl [VX-11e] + Nc1ncn([C@H]2C[C@H](O)[C@@H](CO)O2)c(=O)n1 [Decitabine] (partner 2 µM)
Procedure, shortened: as §1

[4] = compound: CC1=CN=C(N=C1C2=CNC(=C2)C(=O)N[C@H](CO)C3=CC(=CC=C3)Cl)NC4=C(C=C(C=C4)F)Cl [VX-11e] + Cc1cc(Nc2cc(N3CCN(C)CC3)nc(Sc3ccc(NC(=O)C4CC4)cc3)n2)n[nH]1 [Tozasertib] (partner 0.1 µM)
Procedure, shortened: as §1

Cell Line | relative viability ([1]; first compound 0.04 µM) | relative viability ([1]; first compound 0.1265 µM) | relative viability ([1]; first compound 1.265 µM) | relative viability ([1]; first compound 4 µM) | relative viability ([2]; first compound 0.04 µM) | relative viability ([2]; first compound 0.1265 µM) | relative viability ([2]; first compound 1.265 µM) | relative viability ([2]; first compound 4 µM) | relative viability ([3]; first compound 0.04 µM) | relative viability ([3]; first compound 0.1265 µM) | relative viability ([3]; first compound 0.4 µM) | relative viability ([3]; first compound 4 µM) | relative viability ([4]; first compound 0.04 µM) | relative viability ([4]; first compound 0.1265 µM) | relative viability ([4]; first compound 0.4 µM) | relative viability ([4]; first compound 1.265 µM) | relative viability ([4]; first compound 4 µM) | relative viability ([1]; first compound 0.4 µM) | relative viability ([2]; first compound 0.4 µM) | relative viability ([3]; first compound 1.265 µM)
LCLC-97TM1 | 0.396 | 0.383 | 0.324 | 0.182 | 1.09 | 0.8 | 0.226 | 0.171 | 0.259 | 0.209 | 0.221 | 0.171 | 0.21 | 0.223 | 0.2 | 0.166 | 0.179 |  |  | 
LK-2 |  | 0.275 |  | 0.243 |  | 0.832 | 0.522 | 0.439 | 0.179 | 0.33 | 0.177 | 0.207 | 0.148 | 0.182 | 0.22 | 0.185 | 0.159 | 0.394 | 0.812 | 0.208
LOU-NH91 | 0.706 | 0.71 | 0.773 | 0.639 | 0.66 | 0.673 | 0.565 | 0.667 | 0.829 | 0.777 |  | 0.768 | 0.807 | 0.647 | 0.384 | 0.593 | 0.618 |  |  | 0.85
LU99A | 0.527 | 0.496 | 0.475 | 0.243 | 1.03 | 0.913 | 0.253 | 0.235 | 0.872 | 0.81 | 0.822 | 0.347 | 0.25 | 0.246 | 0.269 | 0.244 | 0.22 | 0.517 | 0.864 | 0.727
LXF-289 | 0.902 | 0.788 | 0.706 | 0.543 | 0.895 | 0.869 | 0.772 | 0.634 | 0.364 | 0.376 |  | 0.406 | 0.223 | 0.177 | 0.222 | 0.189 | 0.141 | 0.87 | 0.879 | 0.386
NCI-H23 | 0.422 | 0.504 | 0.347 | 0.32 | 0.875 | 0.952 | 0.393 | 0.331 | 0.279 | 0.312 | 0.306 | 0.22 | 0.321 | 0.322 |  | 0.216 | 0.168 | 0.416 | 0.219 | 0.284
NCI-H322M | 1.08 |  | 0.987 | 0.699 | 0.581 |  | 0.436 | 0.456 | 0.737 | 0.723 | 0.683 | 0.614 | 0.444 | 0.444 | 0.352 | 0.453 | 0.343 | 0.942 | 0.674 | 0.607
NCI-H358 | 0.692 | 0.509 | 0.523 | 0.225 | 0.41 | 0.425 | 0.391 | 0.274 | 0.232 | 0.203 | 0.124 | 0.142 | 0.113 | 0.0919 | 0.102 | 0.096 | 0.0812 |  |  | 0.222
NCI-H460 | 1.18 | 0.907 | 0.56 | 0.0797 | 1.13 | 0.85 | 0.542 | 0.0703 | 0.568 | 0.43 | 0.165 | 0.184 | 0.678 | 0.268 | 0.0898 | 0.031 | 0.0316 | 0.784 | 0.823 | 0.472
NCI-H520 | 0.773 | 0.748 | 0.914 | 0.59 | 0.951 | 0.791 | 0.87 | 0.572 | 0.539 | 0.533 | 0.492 | 0.476 | 0.464 | 0.401 | 0.397 | 0.468 | 0.4 | 0.741 | 0.687 | 0.668
NCI-H596 | 0.891 | 1.05 | 0.939 | 0.722 | 1.2 | 0.938 | 0.917 | 0.774 | 0.864 | 1.05 | 1.01 | 0.834 | 0.912 | 0.815 | 0.845 | 0.758 | 0.446 | 1.09 | 0.933 | 0.998
NCI-H647 | 1.1 | 0.916 | 0.608 | 0.523 | 0.863 | 0.902 | 0.476 | 0.353 | 0.378 | 0.355 | 0.349 | 0.449 | 0.254 | 0.301 | 0.246 | 0.205 | 0.0828 | 1.01 | 0.546 | 0.537
NCI-H650 |  | 0.538 |  | 0.478 |  | 0.894 |  | 0.909 | 0.386 | 0.312 | 0.325 | 0.371 | 0.828 | 0.648 | 0.683 | 0.509 | 0.511 | 0.711 | 0.944 | 0.403
NCI-H661 |  | 0.974 | 1.16 | 0.934 | 0.527 | 0.5 | 0.386 | 0.314 | 0.514 | 0.491 | 0.502 | 0.432 | 0.323 | 0.354 | 0.349 | 0.382 | 0.379 | 1 | 0.446 | 0.52
NCI-H727 | 0.722 | 0.847 | 0.419 | 0.243 | 0.699 | 0.591 | 0.501 | 0.307 | 0.599 | 1.07 | 0.72 | 0.421 | 0.66 | 0.48 | 0.45 | 0.429 | 0.325 | 0.712 | 1.19 | 0.638
NCI-H838 | 0.888 | 0.82 | 0.881 | 0.501 | 0.856 | 0.92 | 0.701 | 0.627 | 0.44 | 0.428 | 0.447 | 0.524 | 0.233 | 0.279 | 0.263 | 0.213 | 0.193 | 0.798 | 0.396 | 0.474
NCI-H1355 | 1.1 | 0.993 | 0.875 | 0.479 | 0.613 | 0.948 | 0.728 | 0.48 | 0.401 | 0.376 | 0.34 | 0.31 | 0.516 | 0.544 | 0.457 | 0.346 | 0.282 | 1.09 | 0.879 | 0.413
NCI-H1437 | 1.05 | 0.957 | 0.974 | 0.487 | 0.755 | 0.754 | 0.291 | 0.228 | 0.589 | 0.519 | 0.517 | 0.494 | 0.421 | 0.379 | 0.345 | 0.335 | 0.159 | 0.853 | 0.35 | 0.602
NCI-H1650 | 1.06 | 0.87 | 0.912 | 0.874 | 0.76 | 0.626 | 0.289 | 0.444 | 0.523 | 0.406 | 0.468 | 0.526 | 0.426 | 0.309 |  | 0.261 | 0.203 | 0.751 | 0.204 | 0.522
NCI-H1651 | 0.916 | 0.821 | 0.768 | 0.812 | 0.639 | 0.747 | 0.602 | 0.654 | 0.445 | 0.633 | 0.541 | 0.59 | 0.898 | 0.523 | 0.536 | 0.38 | 0.253 | 0.826 | 0.634 | 0.497
NCI-H1666 | 1.03 | 0.818 | 0.752 | 0.456 | 0.713 | 0.99 | 0.43 | 0.388 | 0.636 | 0.769 | 0.541 | 0.598 | 0.561 | 0.584 | 0.49 | 0.52 | 0.388 | 0.753 | 0.467 | 0.671
NCI-H1734 | 0.67 | 0.584 | 0.606 | 0.296 | 0.808 | 1.05 | 0.805 | 0.46 | 0.482 | 0.523 | 0.428 | 0.368 | 0.289 | 0.209 | 0.234 | 0.23 | 0.192 | 0.652 | 0.745 | 0.538
NCI-H1755 | 0.905 | 0.849 | 0.873 | 0.491 | 1.05 | 0.97 | 0.93 | 0.771 | 0.7 | 0.736 | 0.665 | 0.661 | 0.59 | 0.487 | 0.513 | 0.527 | 0.402 | 0.845 | 0.833 | 0.716
NCI-H1915 | 0.945 | 0.82 | 0.788 | 0.548 | 0.981 | 0.92 | 0.976 | 0.808 | 0.246 | 0.264 | 0.25 | 0.238 | 0.42 | 0.392 | 0.401 | 0.366 | 0.295 | 0.919 | 0.984 | 0.264
NCI-H1944 | 1.17 | 1.02 | 0.905 | 0.583 | 0.748 | 0.733 | 0.647 | 0.586 | 0.461 | 0.509 | 0.412 | 0.374 | 0.224 | 0.227 |  | 0.231 | 0.171 | 0.942 | 0.621 | 0.41
NCI-H1975 | 0.972 | 0.962 | 0.963 | 0.407 | 0.925 | 0.862 | 0.811 | 0.342 | 0.42 | 0.388 | 0.336 | 0.226 | 0.695 | 0.526 | 0.228 | 0.216 | 0.124 | 0.95 | 0.665 | 0.364
NCI-H1993 |  | 0.804 | 0.752 | 0.647 |  | 0.818 | 0.73 | 0.727 |  | 0.644 | 0.674 | 0.509 | 0.626 | 0.603 | 0.639 | 0.562 | 0.514 |  |  | 0.659
NCI-H2009 | 1.07 | 1.04 | 0.565 | 0.364 | 0.944 | 0.891 | 0.265 | 0.438 | 0.377 | 0.394 | 0.369 | 0.244 | 0.714 | 0.64 | 0.591 | 0.4 | 0.171 | 0.933 | 0.729 | 0.293
